According to the RepoRT retention time repository:

Test: HILIC, Waters ACQUITY UPLC BEH Amide, 100 × 2.1 mm, 1.7 µm; A: water + 0.125% formic acid + 10 mM ammonium formate; B: 5% water + 95% acetonitrile + 0.125% formic acid + 10 mM ammonium formate; gradient (min/%B) 0/100 2/100 7.7/70 9.5/40 10.25/30 12.75/100 17/100
Details: stereoisomer not certain

| Compound | LC retention time [min] |
| --- | --- |
| c1c[nH]cn1 [Imidazole] | 4.53 |
| CN1C2CCC1CC(OC(=O)C(CO)c1ccccc1)C2 (configuration not stated) [Atropine] | 4.32 |
| Cc1cc(=O)oc2cc(O)ccc12 [4-Methylumbelliferone] | 1.22 |
| OCC1OC(OC2(CO)OC(CO)C(O)C2O)C(O)C(O)C1O (configuration not stated) [Sucrose] | 8.05 |
| CN1CCC23c4c5ccc(O)c4OC2C(=O)CCC3C1C5 (configuration not stated) [Hydromorphone] | 5.22 |
| CC(=O)NC(Cc1cnc[nH]1)C(=O)O (configuration not stated) [N-Acetylhistidine] | 8.07 |
| CC1CC2C3CCC4=CC(=O)C=CC4(C)C3(F)C(O)CC2(C)C1C(=O)CO (configuration not stated) [Desoximetasone] | 1.13 |
| CC(CO)CCNc1ncnc2nc[nH]c12 (configuration not stated) [Dihydrozeatin] | 2.99 |
| COC1C(O)C(CO)OC1n1cnc2c(=O)[nH]cnc21 (configuration not stated) [2'-O-Methylinosine] | 4.06 |
| C[N+](C)(C)C(Cc1c[nH]c(=S)[nH]1)C(=O)[O-] (configuration not stated) [Ergothioneine] | 7.74 |
| CC(C)NCC(O)c1ccc(NS(C)(=O)=O)cc1 (configuration not stated) [Sotalol] | 4.87 |
| CC(C)CC(NC(=O)C(COC(C)(C)C)NC(=O)C(Cc1ccc(O)cc1)NC(=O)C(CO)NC(=O)C(Cc1c[nH]c2ccccc12)NC(=O)C(Cc1cnc[nH]1)NC(=O)C1CCC(=O)N1)C(=O)NC(CCCN=C(N)N)C(=O)N1CCCC1C(=O)NNC(N)=O (configuration not stated) [Goserelin] | 7.83 |
| CCCc1nc2c(C)cc(-c3nc4ccccc4n3C)cc2n1Cc1ccc(-c2ccccc2C(=O)O)cc1 [Telmisartan] | 1.25 |
| O=c1[nH]c(=O)n(C2CCCO2)cc1F (configuration not stated) [Tegafur] | 1.22 |
| Nc1c2c(nc3ccccc13)CCCC2 [Tacrine] | 3.86 |
| OCCc1c[nH]c2ccc(O)cc12 [5-Hydroxytryptophol] | 5.93 |
| CC1CCN(CCCC(=O)c2ccc(F)cc2)CC1 [Melperone] | 2.12 |
| CCOc1cc(N)c(Cl)cc1C(=O)NCC1CN(Cc2ccc(F)cc2)CCO1 (configuration not stated) [Mosapride] | 1.24 |
| CC1CC2C3CCC4=CC(=O)C=CC4(C)C3(Cl)C(O)CC2(C)C1(O)C(=O)CO (configuration not stated) [Beclomethasone] | 1.26 |
| CC(=O)NC(CS)C(=O)O (configuration not stated) [N-Acetylcysteine] | 5.28 |
| CSCCC(NC(C)=O)C(=O)O (configuration not stated) [N-Acetylmethionine] | 3.23 |
| CC(C)CN [Isobutylamine] | 5.04 |
| OCCN1CC(O)C(O)C(O)C1CO (configuration not stated) [Miglitol] | 8.12 |

| Compound | LC retention time [min] |
| --- | --- |
| CN1CC(=O)N2C(Cc3c([nH]c4ccccc34)C2c2ccc3c(c2)OCO3)C1=O (configuration not stated) [Taldalafil] | 1.19 |
| CNCCC(Oc1ccccc1C)c1ccccc1 (configuration not stated) [Atomoxetine] | 2.42 |
| CN1CCN(C2=Nc3cc(F)ccc3Cc3ccccc32)CC1 [Fluperlapine] | 2.3 |
| CCOC(=O)C1C(OC(=O)c2ccccc2)CC2CCC1N2C (configuration not stated) [Cocaethylene] | 2.12 |
| O=C(O)c1cc(N=Nc2ccc(S(=O)(=O)Nc3ccccn3)cc2)ccc1O [Sulfasalazine] | 2.01 |
| CC(C)CC(=O)OC(CC(=O)[O-])C[N+](C)(C)C [Isovaleryl-L-carnitine] | 5.36 |
| COc1cc(C=O)ccc1O [Vanillin] | 1.15 |
| O=C(NCCN1CCOCC1)c1ccc(Cl)cc1 [Moclobemide] | 2.03 |
| CCC(=O)OC(Cc1ccccc1)(c1ccccc1)C(C)CN(C)C (configuration not stated) [Propoxyphene] | 2.01 |
| CN1C(=O)CN=C(c2ccccc2)c2cc([N+](=O)[O-])ccc21 [Nimetazepam] | 0.98 |
| Cc1cccc(C)c1NC(=O)C1CCCCN1C (configuration not stated) [Mepivacaine] | 2.96 |
| c1ccc(C2CN3CCSC3=N2)cc1 (configuration not stated) [Levamisole] | 2.95 |
| CCC(=O)C(CC(C)N(C)C)(c1ccccc1)c1ccccc1 (configuration not stated) [Methadone] | 2 |
| CCNC(=O)CCC(N)C(=O)O (configuration not stated) [Theanine] | 7.66 |
| CN1C(=O)CC(=O)N(c2ccccc2)c2cc(Cl)ccc21 [Clobazam] | 1.1 |
| CC(C)=CCN1CCC2(C)c3cc(O)ccc3CC1C2C (configuration not stated) [Pentazocine] | 2.65 |
| NCCc1c[nH]c2ccccc12 [Tryptamine] | 6.92 |
| Cc1cnc(=O)[nH]c1N [5-Methylcytosine] | 6.62 |
| c1ccc2c(c1)Cc1ccccc1-2 [Fluorene] | 6.66 |
| CC(=O)NC(Cc1c[nH]c2ccccc12)C(=O)O (configuration not stated) [N-Acetyltryptophan] | 2.81 |
| CC(=O)NO [Acetohydroxamic acid] | 2.94 |
| O=c1cccc[nH]1 [2-Pyridone] | 2.05 |
| Cn1c[n+](C2OC(CO)C(O)C2O)c2nc(N)nc([O-])c21 (configuration not stated) [7-Methylguanosine] | 7.34 |

Second part, the molecule after the results:

| LC retention time [min] | Compound |
| --- | --- |
| 3.13 | COC(=O)CCc1ccc(OCC(O)CNC(C)C)cc1 (configuration not stated) [Esmolol] |
| 1.24 | OCc1c[nH]c2ccccc12 [Indole-3-carbinol] |
| 1.11 | CCOC(=O)N1CCC(=C2c3ccc(Cl)cc3CCc3cccnc32)CC1 [Loratadine] |
| 9.53 | NC(N)=NCCCC(N)C(=O)O (configuration not stated) [Arginine] |
| 4.89 | CCCCCC(=O)O [Hexanoic acid] |
| 1.99 | COc1ccccc1N1CCN(CC(O)COc2cccc3ccccc23)CC1 (configuration not stated) [Naftopidil] |
| 2.27 | O=c1[nH]c(=S)ccn1C1OC(CO)C(O)C1O (configuration not stated) [4-Thiouridine] |
| 1.12 | Cc1ncc([N+](=O)[O-])n1CC(C)O (configuration not stated) [Secnidazole] |
| 4.69 | COc1c(N2CC3CCCNC3C2)c(F)cc2c(=O)c(C(=O)O)cn(C3CC3)c12 (configuration not stated) [Moxifloxacin] |
| 2.71 | CN1CCC(=C2c3ccccc3CC(=O)c3sccc32)CC1 [Ketotifen] |
| 6.03 | NC(=O)CCC(NC(=O)Cc1ccccc1)C(=O)O (configuration not stated) [Phenylacetylglutamine] |
| 10.3 | CC(NC(CCCN=C(N)N)C(=O)O)C(=O)O (configuration not stated) [Octopine] |
| 1.98 | CN(C)CCN(Cc1ccccc1)c1ccccn1 [Tripelennamine] |
| 1.34 | Nc1ccc(O)cc1 [4-Aminophenol] |
| 5.61 | NC(C(=O)NC1C(=O)N2C(C(=O)O)=C(Cl)CSC12)c1ccccc1 (configuration not stated) [Cefaclor] |
| 6.49 | CC12CCC3c4ccc(O)cc4CCC3C1CC(OC1OC(C(=O)O)C(O)C(O)C1O)C2O (configuration not stated) [16-Glucuronide-estriol] |
| 9.47 | NC(CC(=O)O)C(=O)NC(CCC(=O)O)C(=O)O (configuration not stated) [Asp-Glu] |
| 1.33 | Cn1nnc2c(C(N)=O)ncn2c1=O [Temozolomide] |
| 1.35 | COc1ccc2nc(S(=O)Cc3ncc(C)c(OC)c3C)[nH]c2c1 (configuration not stated) [Omeprazole] |
| 2.84 | CC(C)C(=O)C(=O)O [Ketoisovaleric acid] |
| 4.19 | Cc1cn(C2OC(CO)C(O)C2O)c(=O)[nH]c1=O (configuration not stated) [5-Methyluridine] |
| 7.6 | CC(C)CC(NC(=O)C(C)N)C(=O)O (configuration not stated) [Ala-Leu] |
| 1.5 | O=C(CCc1ccc(O)cc1)c1c(O)cc(O)cc1O [Phloretin] |

| LC retention time [min] | Compound |
| --- | --- |
| 3.23 | CCCCCCCCCCCCCCCC(=O)OC(CC(=O)[O-])C[N+](C)(C)C (configuration not stated) [Palmitoylcarnitine cation] |
| 6.98 | Nc1ccccc1C(=O)CC(N)C(=O)O (configuration not stated) [Kynurenine] |
| 7.8 | NC(=O)NC(CCC(=O)O)C(=O)O (configuration not stated) [Ureidoglutaric acid] |
| 1.97 | CCN(CC)CC(=O)Nc1c(C)cccc1C [Lidocaine] |
| 4.8 | CN(C)CCc1c[nH]c2ccc(CC3COC(=O)N3)cc12 (configuration not stated) [Zolmitriptan] |
| 1.81 | CC(C)c1ccc2oc3nc(N)c(C(=O)O)cc3c(=O)c2c1 [Amlexanox] |
| 2.56 | CC12CCC(=O)C=C1CCC1C2C(O)CC2(C)C1CCC2(O)C(=O)CO (configuration not stated) [Hydrocortisone] |
| 1.15 | CC(C)c1nc(CN(C)C(=O)NC(C(=O)NC(Cc2ccccc2)CC(O)C(Cc2ccccc2)NC(=O)OCc2cncs2)C(C)C)cs1 (configuration not stated) [Ritonavir] |
| 1.19 | COc1cc(-c2ccc(=O)[nH]n2)ccc1OC(F)F [Zardaverine] |
| 1.29 | CC12CCC(=O)C=C1CCC1C2C(=O)CC2(C)C1CCC2(O)C(=O)CO (configuration not stated) [Cortisone] |
| 4.01 | O=C(O)CNC(=O)c1ccco1 [N-(2-Furoyl)glycine] |
| 7.24 | NCCCNCCCCNCCCN [Spermine] |
| 0.97 | CC(=O)C1CCC2C3CCC4=CC(=O)CCC4(C)C3CCC12C (configuration not stated) [Progesterone] |
| 4.36 | O=C(CO)c1ccccc1 [2-Hydroxyacetophenone] |
| 4.76 | CCC1=CC2CN(C1)Cc1c([nH]c3ccccc13)C(C(=O)OC)(c1cc3c(cc1OC)N(C)C1C(O)(C(=O)OC)C(OC(C)=O)C4(CC)C=CCN5CCC31C54)C2 (configuration not stated) [Vinorelbine] |
| 5.29 | NCC1CCC(C(=O)Oc2ccc(CCC(=O)O)cc2)CC1 (configuration not stated) [Cetraxate] |
| 8.14 | NC(CC(=O)O)C(=O)NC(Cc1ccccc1)C(=O)O (configuration not stated) [Asp-Phe] |
| 6.41 | Nc1nc2[nH]c(=O)cnc2c(=O)[nH]1 [Isoxanthopterin] |
| 3.92 | Nc1ncnc2c1ncn2C1CC(O)C(CO)O1 (configuration not stated) [2'-Deoxyadenosine] |
| 1.23 | CC(c1cc2ccccc2s1)N(O)C(N)=O (configuration not stated) [Zileuton] |
| 7.67 | CC(=O)NC(CCC(=O)O)C(=O)O (configuration not stated) [N-Acetylglutamic acid] |
| 2.17 | CCCCCCCCCC=O [Decanal] |
| 8.71 | O=C(O)CCc1ccccc1 [Hydrocinnamic acid] |
